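Compound exposure: 48 hours, 5 concentrations, 96-well plates. GI50 marks 50% less growth.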 Activity calls are given as the source filed them. Rule as the data show it: active = GI50 up to about 1.1 µM and inactive = higher.
Experiments:
Experiment in all cases: NCI-60 cell line screen, 48 h
[1] = test system: NCI-H23
[2] = test system: MDA-MB-231
[3] = test system: SN12C
[4] = test system: UACC-257
[5] = test system: M14
[6] = test system: NCI-H460
[7] = test system: MCF7
[8] = test system: UACC-62
[9] = test system: UO-31
[10] = test system: RXF 393
[11] = test system: SNB-19
[12] = test system: HCT-15
[13] = test system: A498
[14] = test system: SF-268
[15] = test system: NCI-H226
[16] = test system: RPMI-8226
[17] = test system: MDA-N
[18] = test system: MOLT-4
[19] = test system: HCC 2998
[20] = test system: SR

SMILES	GI50 [1]	GI50 [2]	GI50 [3]	GI50 [4]	GI50 [5]	GI50 [6]	GI50 [7]	GI50 [8]	GI50 [9]	GI50 [10]	GI50 [11]	GI50 [12] [µM]	GI50 [13]	GI50 [14]	GI50 [15]	GI50 [16]	GI50 [17]	GI50 [18]	GI50 [19]	GI50 [20]
Cc1csc2nc(-c3ccc(Cl)c([N+](=O)[O-])c3)c(/C=N/NC(=N)N)n12	1.7 µM (inactive)	1.77 µM (inactive)	1.76 µM (inactive)	0.459 µM (active)	1.74 µM (inactive)	1.78 µM (inactive)	1.26 µM (inactive)	1.72 µM (inactive)	1.12 µM (inactive)	1.63 µM (inactive)	1.3 µM (inactive)	1.66	1.51 µM (inactive)	1.71 µM (inactive)	1.67 µM (inactive)	1.75 µM (inactive)	1.32 µM (inactive)	–	–	–
C=CCCCCCCC#CCCCCCCCCCC[C@@H]1C(=O)O[C@H](C)[C@@H]1O.CCCCCCCCC#CCCCCCCCCCC[C@@H]1C(=O)O[C@H](C)[C@@H]1O	8.39 µM (inactive)	23.6 µM (inactive)	15.3 µM (inactive)	8.45 µM (inactive)	17.3 µM (inactive)	11.7 µM (inactive)	15.4 µM (inactive)	–	15.6 µM (inactive)	11.4 µM (inactive)	15.9 µM (inactive)	20.2	55.3 µM (inactive)	13.9 µM (inactive)	27.1 µM (inactive)	16.5 µM (inactive)	23.2 µM (inactive)	12.6 µM (inactive)	23.6 µM (inactive)	–
CC1=C(C(=O)OCCc2ccc([N+](=O)[O-])cc2)C(c2ccccc2C(F)(F)F)C(C(=O)OC(C)C)=C(C)N1 (centres undefined)	3.7 µM (inactive)	3.79 µM (inactive)	3.12 µM (inactive)	3.86 µM (inactive)	2.41 µM (inactive)	2.47 µM (inactive)	3.36 µM (inactive)	3.22 µM (inactive)	4.19 µM (inactive)	1.87 µM (inactive)	4.85 µM (inactive)	3.78	–	3.53 µM (inactive)	3.15 µM (inactive)	3.1 µM (inactive)	4.33 µM (inactive)	2.08 µM (inactive)	4.92 µM (inactive)	3.11 µM (inactive)
O=C(/C=C/c1ccsc1)c1ccsc1	21.6 µM (inactive)	20.6 µM (inactive)	19.5 µM (inactive)	19.1 µM (inactive)	33.7 µM (inactive)	23.7 µM (inactive)	13.8 µM (inactive)	32.4 µM (inactive)	15.4 µM (inactive)	–	20.2 µM (inactive)	19.1	37.5 µM (inactive)	44.8 µM (inactive)	17 µM (inactive)	15.5 µM (inactive)	23.2 µM (inactive)	17.6 µM (inactive)	19.5 µM (inactive)	19.5 µM (inactive)
Cc1nc(Cc2n[nH]c(C)n2)n[nH]1	> 100 µM (inactive)	> 100 µM (inactive)	> 100 µM (inactive)	> 100 µM (inactive)	> 100 µM (inactive)	–	> 100 µM (inactive)	> 100 µM (inactive)	> 100 µM (inactive)	> 100 µM (inactive)	> 100 µM (inactive)	> 100	–	> 100 µM (inactive)	–	> 100 µM (inactive)	> 100 µM (inactive)	> 100 µM (inactive)	> 100 µM (inactive)	> 100 µM (inactive)
N/C(=N\N=C\c1nc2ccccc2o1)c1cnccn1	83.8 µM (inactive)	51.2 µM (inactive)	> 100 µM (inactive)	> 100 µM (inactive)	> 100 µM (inactive)	72.9 µM (inactive)	> 100 µM (inactive)	> 100 µM (inactive)	> 100 µM (inactive)	49.5 µM (inactive)	> 100 µM (inactive)	> 100	> 100 µM (inactive)	> 100 µM (inactive)	> 100 µM (inactive)	> 100 µM (inactive)	> 100 µM (inactive)	> 100 µM (inactive)	–	> 100 µM (inactive)
CC(=O)c1c2c(cc3c1CC1(Cc4cc5c(cc4C1)CCC5)C3)CCC2	> 100 µM (inactive)	> 100 µM (inactive)	–	63.8 µM (inactive)	> 100 µM (inactive)	> 100 µM (inactive)	> 100 µM (inactive)	–	> 100 µM (inactive)	> 100 µM (inactive)	> 100 µM (inactive)	> 100	> 100 µM (inactive)	> 100 µM (inactive)	–	> 100 µM (inactive)	> 100 µM (inactive)	> 100 µM (inactive)	> 100 µM (inactive)	> 100 µM (inactive)
COC(=O)CC1C(COC(C)=O)OC(n2cc(C)c(=O)[nH]c2=O)C1OC(C)=O (centres undefined)	> 100 µM (inactive)	> 100 µM (inactive)	> 100 µM (inactive)	> 100 µM (inactive)	> 100 µM (inactive)	> 100 µM (inactive)	> 100 µM (inactive)	> 100 µM (inactive)	> 100 µM (inactive)	> 100 µM (inactive)	> 100 µM (inactive)	> 100	> 100 µM (inactive)	> 100 µM (inactive)	> 100 µM (inactive)	> 100 µM (inactive)	> 100 µM (inactive)	–	> 100 µM (inactive)	–

Source: ChEMBL document CHEMBL1201862, “PubChem BioAssay data set” (2004)
